“Also recorded” adds a separate entry of the source. Where a SMILES comes first, the peptide text is derived from it. The star is where a group is joined. Cbz = O=C(OCc1ccccc1)*
How the values were obtained:
Assay type in all cases: cell-based, human
T-ALL cell lines [1] = assay: 7-AAD/Annexin V double-staining FACS analysis of apoptosis; conditions: 48 hours; for effect of sorafenib on ABT-737 sensitivity (apoptosis by FACS): sorafenib and/or ABT-737, 10% FBS
Protocol: (§1) Cell culture including synchronization and transfection has been described^6,28. Wild type and Fbw7−/− DLD1 cell lines were kind gifts from Dr. Bert Vogelstein. Murine T-ALL cell lines derived from Tall transgenic mice were kind gifts from Dr. Michele A. Kelliher. Human T-ALL cell lines were previously described^2. Loucy and CMLT1 T-ALL cell lines were obtained from Jon Aster. For various assays described below, T-ALL cells were cultured in either 0.5% FBS or 10% FBS-containing medium for sorafenib (Alexis Biochemicals) or ABT-737 (Symansis) treatment. In the case of combined treatment with both sorafenib and ABT-737, T-ALL cells were maintained in 10% FBS-containing medium. Lentiviral shRNA virus packaging, retrovirus packaging, and subsequent infections were performed as described previously^28. For cell viability assays, cells were plated at 10,000 per well in 96-well plates, and incubated with the appropriate medium containing sorafenib, ABT-737 or DMSO for 48 h. Assays were performed with CellTiter-Glo Luminescent Cell Viability Assay kit according to the manufacturer's instructions (Promega). For detection of apoptosis, cells treated with various drugs were stained with propidium iodide (Roche), or co-stained with Annexin V-PE and 7-amino-actinomycin D (Annexin V-PE Apoptosis Detection Kit I, BD Bioscience) according to the manufacturer's instructions. Stained cells were sorted with Dako-Cytomation MoFlos sorter (Dako) at the Dana-Farber Cancer Institute FACS core facility.

T-ALL cell lines [2] = assay: Cell viability assay (CellTiter-Glo) of T-ALL cell lines; conditions: for sensitivity of Fbw7-deficient T-ALL cell lines compared with wild-type Fbw7 lines (cell viability): 0.5% FBS-containing medium, FIG. 13g; for sensitivity of Fbw7-deficient T-ALL cell lines (cell viability): 10% FBS-containing medium, FIG. 12a; for resistance of Fbw7-deficient T-ALL cell lines compared with wild-type Fbw7 lines to apoptotic stimuli (cell viability): FIG. 13c-f; for resistance after re-introduction of 3A-Mcl-1: FIG. 14e-f
Protocol: as §1

Mcl-1 [3] = assay: Protein degradation analysis of Myc-Mcl-1 in transfected 293T cells; conditions: 293T cells transfected with Myc-Mcl-1, HA-Fbw7, HA-GSK3, FIG. 9a
Protocol: Cells were transfected with Myc-Mcl-1 along with HA-Fbw7, or Flag-β-TRCP1, and GFP as a negative control, in the presence or absence of HA-GSK3 and/or HA-ERK1. For half-life studies, cycloheximide (20 μg/ml, Sigma) was added to the media 40 h post-transfection. At various time points thereafter, cells were lysed and protein abundances were measured by immunoblot analysis.

Mcl-1 [4] = assay: Immunoblot analysis of Mcl-1 expression in T-ALL cell lines; conditions: 0.5% FBS-containing medium, FIG. 13h
Protocol: Cells were lysed in EBC (50 mM Tris pH 8.0, 120 mM NaCl, 0.5% NP-40) buffer supplemented with protease inhibitors (Complete Mini, Roche) and phosphatase inhibitors (phosphatase inhibitor cocktail set I and II, Calbiochem). The protein concentrations of the lysates were measured using the Bio-Rad Bradford protein assay reagent on a Beckman Coulter DU-800 spectrophotometer. The lysates were then resolved by SDS-PAGE and immunoblotted with the indicated antibodies. For immunoprecipitation, 800 μg lysates were incubated with the appropriate antibody (1-2 μg) for 3-4 h at 4° C. followed by one-hour incubation with Protein-A Sepharose beads (GE Healthcare). Immuno-complexes were washed five times with NETN buffer (20 mM Tris, pH 8.0, 100 mM NaCl, 1 mM EDTA and 0.5% NP-40) before being resolved by SDS-PAGE and immunoblotted with the indicated antibodies. Quantification of the immunoblot band intensity was performed with Image J software.

For CN(C)CC[C@H](CSc1ccccc1)Nc1ccc(S(=O)(=O)NC(=O)c2ccc(N3CCN(Cc4ccccc4-c4ccc(Cl)cc4)CC3)cc2)cc1[N+](=O)[O-] [ABT-737], the “ABT-737-induced apoptosis in Fbw7-deficient T-ALL cells” value (T-ALL cell lines [1]; 10% FBS, FIG. 13j, also immunoblots of apoptotic biomarkers FIG. 12b) was “impaired”, the “sensitivity of Fbw7-deficient T-ALL cell lines compared with wild-type Fbw7 lines (cell viability)” value (T-ALL cell lines [2]; 48 hours) was “resistant” and the “sensitivity of Fbw7-deficient T-ALL cell lines (cell viability)” value (T-ALL cell lines [2]; 48 hours) was “resistant”. The “resistance after re-introduction of wild-type or 3A-Mcl-1” value (T-ALL cell lines [2]; DND41 cells, 10% FBS, 48 hours, FIG. 14b) was “increase in resistance”, the “ABT-737 sensitivity after re-introduction of wild-type Fbw7” value (T-ALL cell lines [2]; Fbw7-deficient CMLT1 cells, 10% FBS, 48 hours, FIG. 14a) was “partially restored its sensitivity” and the “ABT-737 sensitivity after depletion of endogenous Mcl-1” value (T-ALL cell lines [2]; Fbw7-deficient T-ALL cell lines, shMcl-1, 10% FBS, 48 hours, FIG. 12c) was “restored ABT-737 sensitivity”.
CC(C)C[C@@H](C=O)NC(=O)[C@H](CC(C)C)NC(=O)[C@H](CC(C)C)NC(=O)OCc1ccccc1 [MG132] (Cbz-Leu-Leu-Leu-aldehyde) was tested, and the “effect on Fbw7/GSK3-mediated Mcl-1 destruction” value (Mcl-1 [3]) was “blocked”.
With COC(=O)Nc1nc2ccc(C(=O)c3cccs3)cc2[nH]1 [Nocodazole] the “resistance of Fbw7-deficient T-ALL cell lines compared with wild-type Fbw7 lines to apoptotic stimuli (cell viability)” value (T-ALL cell lines [2]) was “more resistant”.
CC(=O)O[C@H]1C(=O)[C@@]2(C)[C@H]([C@H](OC(=O)c3ccccc3)[C@]3(O)C[C@H](OC(=O)[C@H](O)[C@@H](NC(=O)c4ccccc4)c4ccccc4)C(C)=C1C3(C)C)[C@]1(OC(C)=O)CO[C@@H]1C[C@@H]2O [Taxol] was tested, and the “resistance after re-introduction of 3A-Mcl-1” value (T-ALL cell lines [2]; DND41 cells) was “increase in resistance” and the “resistance of Fbw7-deficient T-ALL cell lines compared with wild-type Fbw7 lines to apoptotic stimuli (cell viability)” value (T-ALL cell lines [2]) was “more resistant”.
For CC[C@@]1(O)C(=O)OCc2c1cc1n(c2=O)Cc2cc3ccccc3nc2-1 [camptothecin], the “resistance after re-introduction of 3A-Mcl-1” value (T-ALL cell lines [2]; DND41 cells) was “increase in resistance” and the “resistance of Fbw7-deficient T-ALL cell lines compared with wild-type Fbw7 lines to apoptotic stimuli (cell viability)” value (T-ALL cell lines [2]) was “more resistant”.
In the case of COc1cc([C@@H]2c3cc4c(cc3[C@@H](O[C@@H]3O[C@@H]5CO[C@@H](C)O[C@H]5[C@H](O)[C@H]3O)[C@H]3COC(=O)[C@H]23)OCO4)cc(OC)c1O [etoposide], the “resistance of Fbw7-deficient T-ALL cell lines compared with wild-type Fbw7 lines to apoptotic stimuli (cell viability)” value (T-ALL cell lines [2]) is reported as “more resistant” and the “sensitivity to induced apoptosis after re-introduction of wild-type Fbw7” value (T-ALL cell lines [2]; Fbw7-deficient HPB-ALL and JRT3-T3.5 cells, FIG. 14d) is reported as “partially restored their sensitivity”.
CNC(=O)c1cc(Oc2ccc(NC(=O)Nc3ccc(Cl)c(C(F)(F)F)c3)cc2)ccn1 [sorafenib] was tested, and the “effect of sorafenib on ABT-737 sensitivity (apoptosis by FACS)” value (T-ALL cell lines [1]; Fbw7-deficient CMLT1 and JRT3-T3.5 cells, FIG. 14h) was “restored ABT-737 sensitivity”, the “effect of sorafenib on ABT-737 sensitivity (apoptosis by FACS)” value (T-ALL cell lines [1]; Fbw7-deficient HPB-ALL cells, FIG. 12e) was “significant increase in the induction of apoptosis; also recorded: restores ABT-737 sensitivity” and the “effect on Mcl-1 expression” value (Mcl-1 [4]) was “effectively reduce Mcl-1 expression”. The “sensitivity of Fbw7-deficient T-ALL cell lines compared with wild-type Fbw7 lines (cell viability)” value (T-ALL cell lines [2]; 48 hours) was “more sensitive”, the “sensitivity of Fbw7-deficient T-ALL cell lines (cell viability)” value (T-ALL cell lines [2]; 48 hours) was “more sensitive” and the “effect of sorafenib on ABT-737 sensitivity (cell viability)” value (T-ALL cell lines [2]; Fbw7-deficient HPB-ALL cells, combined with ABT-737, 10% FBS, 48 hours, FIG. 14g) was “dose-dependent increase of ABT-737 sensitivity; also recorded: restored ABT-737 sensitivity”.

Source: patent US10006089B2, “MCL-1 as a therapeutic target in SCFFBW7 deficient neoplasm” (Beth Israel Deaconess Medical Center, Inc., priority 2011, dated 2018)
